Patent publication US9259404B2 (NESTEC S.A., priority 2012, dated 2016)
Entries after “also recorded” stand apart in the source; their conditions may differ.

Assays:
Nrf2 = Nrf2 reporter assay (AREc32 cell line, luciferase under control of the ARE); format: cell-based; settings: AREc32 cells, 24 h, dose range 0 to 200 μM (FIG. 3)
Description: Activation of Nrf2 was measured using an Nrf2 reporter assay. This assay is based on the AREc32 cell line, from CRX biosciences (Dundee, Scotland), a stably transfected MCF7 (breast adenocarcinoma) cell line that contains a luciferase gene construct under the control of the ARE. Luciferase is an enzyme which digests luciferin and produces […]. Anti-oxidative molecules such as Tert-butylhydroquinone (TBHQ) induce luciferase transcription via the activation of Nrf2 that binds to ARE. Luciferase activity is determined using a luciferase kit form Promega (Madison, Wis.). The luciferase activity is proportional to the activation of Nrf2. […] The luciferase activity and the cell viability (ATP measurements) were determined using the Luciferase and Cell Titer-Glo kits from Promega. For each run the luciferase activities, measured in Relative Light Units (RLU), of all the wells were normalized with the mean of the luciferase activity of the cells only of all the plates. Among all the samples tested the normalization procedure was found not to affect the data and this observation permits the comparison of samples measured in different runs. For each sample the Nrf2 activation was calculated as follows: […] […] The luciferase content per sample allows a semi quantification of the Nrf2 activation by reflecting the amount of the Nrf2 activating molecule. […]

AREc32 cells = assay: Cell viability of AREc32 cells (ATP quantification, Cell Titer-Glo); format: cell-based; settings: 24 h
Description: The cell viability, measured by ATP quantification, is expressed as relative percentages of control (untreated) cells. The results are expressed as means of technical triplicates±SD and are representative of four independent experiments.
To determine the Nrf2 activation the samples were tested on AREC32 cells (seeded in 96 well plates) using 10 independent dilutions (1/2, 1/4, 1/6, 1/10, 1/15, 1/20, 1/25, 1/30, 1/40 and 1/50) and incubated for 24 hours at 37° C. in a 5% CO2/air incubator. The luciferase activity and the cell viability (ATP measurements) were determined using the Luciferase and Cell Titer-Glo kits from Promega.
The cell viability was also measured using a cell Titer-Glo kit (ATP quantification).

[1] = test system: neuron astrocyte co-cultures; assay: Neuron-astrocyte co-culture, oxidative stress induced by hydrogen peroxide, MTT assay; format: cell-based, mouse; settings: 48 hours pre-treatment, 100 μM hydrogen peroxide 4 hours
Source text: The beneficial effect of compounds on cell survival is classically investigated by challenging the cell cultures with neurotoxic insults and measuring the resulting oxidative stress and excitotoxicity over a limited period of time (Aksenova et al., Current Neurovascular Research, 2, 73-89 (2005)). […] The model consists of primary neurons plated on glass coverslips that face astrocytes seeded on the bottom of a culture dish. The two cellular compartments are separated by paraffin beads, but released compounds (e.g., energy substrates and glutathione precursors) can freely diffuse from one compartment to the other through the culture medium. Primary cultures of mouse neurons are grown for 12 days in Neurobasal™ medium on 20 mm diameter glass coverslips. Primary cultures of mouse astrocytes are grown for 21 days in astrocytes culture medium in 35 mm diameter dishes. Two hours before initiation of the co-culture, the astrocyte medium is removed and replaced by a fresh neuronal medium. The co-culture is initiated by putting the glass coverslips bearing neurons in the dishes containing astrocyte culture so that neurons face astrocytes. […] For detection this purple product is solubilised for colorimetric quantification at 560 nm using a spectrophotometer.

[2] = background statement; cited from earlier work

Row | SMILES | Nrf2 activation (in words) (Nrf2) | Doses at which viability of AREc32 cells was not affected (AREc32 cells) | Concentration giving the strongest protective effect [1] | Protection of neurons against oxidative stress (in words) ([1]; all tested concentrations (5 μM to 30 μM) except 10 μM) | Aqueous solubility (in words) [2]
1 | CC(=O)/C=C/C(=O)O [4-oxo-2-pentenoic acid] | activates Nrf2; also recorded: strongly activate Nrf2 in a dose dependent manner | lower than 70 μM | 5 µM | protects neuronal cells against oxidative stress; also recorded: clear and significant protection | 
2 | COc1cc(/C=C/C(=O)CC(=O)/C=C/c2ccc(O)c(OC)c2)ccc1O [curcumin] |  |  |  |  | very low aqueous solubility
3 | O=c1c(O)c(-c2ccc(O)c(O)c2)oc2cc(O)cc(O)c12 [quercitin] |  |  |  |  | very low aqueous solubility
4 | Oc1ccc(C=Cc2cc(O)cc(O)c2)cc1 [resveratrol] |  |  |  |  | very low aqueous solubility
